The values that follow are results of earlier work, collected in patent US6159733A, “Method for photoinactivating malignant cells” (priority 1996, dated 2000).

Read-outs that look alike come from different tables or passages of the source.

For one series, the system named is BFU-E. To be noted: cited from earlier work.
The test system of the next series is cancer cell. The following applies: conditions of the CFU-GM/BFU-E survival data; cited from earlier work.
The next series has as its system CFU-GM. The following applies: cited from earlier work.
Series [1] relates to cell lines in BM mixtures. The following applies: cited from earlier work.
Another series has as its system malignant cells. The following applies: cited from earlier work.
Series [2] has as its system multidrug resistance (mdr) pump. To be noted: cited from earlier work.
For a further series, the system named is cell types. To be noted: cited from earlier work.
The next series has as its system pluripotent stem cells. To be noted: Sieber, Photochem Photobiol. 46:71 (1987); cited from earlier work.
Setting [3] is: Atzpodien, Cancer Res. 46:4892 (1986).

On to “benzoporphyrinderivative monoacid ring A [BPD-MA]”, for which the “surviving fraction of BFU-E” value with BFU-E (bfu-e) is 0.05. Also, in the series with cancer cell, the “reduction of cancer cell survival” value was 4-5 log10. Moreover, the “surviving fraction of CFU-GM” value with CFU-GM (cfu-gm) is on record as 0.04.

On to “sulphonate aluminum phthalocyanine [AlSPc]”, for which, in series [1] (BM fraction=0.99), the “photoinactivation of cell lines mixed with BM” value is “photoinactivated as effectively as unmixed cell lines”. The “photoinactivation of malignant cells” value in the series on malignant cells is listed as “successfully achieved”. Further, the “reduction of cancer cell survival” value in the series with cancer cell is 4-5 log10. Moreover, the “surviving fraction of CFU-GM” value with CFU-GM (cfu-gm) is 0.60.

With `COc1ccc(CCN(C)CCCC(C#N)(c2ccc(OC)c(OC)c2)C(C)C)cc1OC` (stereo not drawn) [verapamil], the “inhibition of the multidrug resistance (mdr) pump” value in series [2] is listed as “known inhibitor”.

Regarding dihematoporphyrin ether [DHE], the “photoinactivation of malignant cells” value with malignant cells is reported as “successfully achieved”. Moreover, the “surviving fraction of BFU-E” value in the series on BFU-E (Atzpodien, Blood 70:484 (1987)) was 0.47; in the series on BFU-E (Lemoli, Blood 81:793 (1993)), 0.10. Further, the “reduction of cancer cell survival” value in the series on cancer cell is recorded as 4-5 log10. Besides, the “surviving fraction of CFU-GM” value with CFU-GM (Atzpodien, Blood 70:484 (1987)) is on record as 0.29; with CFU-GM (Lemoli, Blood 81:793 (1993)) it was 0.05.

In the case of Photofrin, the “relation of uptake and photosensitivity” value in the series with cell types (Williams, Photochem. Photobiol. 46:733 (1987)) was “increased uptake resulted in increased photosensitivity for each cell type”. In addition, the “differences in photoinactivation between cell types” value in the series on cell types (despite significant differences in photosensitizer uptake) is “marginal differences in photoinactivation”.

With `CCCCN1C(=O)C(=CC=CC=C2Oc3ccccc3N2CCCS(=O)(=O)O)C(=O)N(CCCC)C1=S` [MC 540, merocyanine-540], the “photoinactivation of cell lines mixed with BM” value in series [1] (BM fraction=0.95-0.99) was “more effectively inactivated in mixtures”. Moreover, the “photoinactivation of malignant cells” value in the series with malignant cells is recorded as “successfully achieved”. Moreover, the “surviving fraction of BFU-E” value with BFU-E (setting [3]) was 0.14; with BFU-E (Gulliya, Blood 73:1059 (1989)), 0.04. Further, the “reduction of cancer cell survival” value with cancer cell is listed as 4-5 log10. The “depletion of murine pluripotent stem cells” value in the series on pluripotent stem cells is reported as 1 log10. The “surviving fraction of CFU-GM” value in the series on CFU-GM (setting [3]) is reported as 0.18; in the series with CFU-GM (Gulliya, Blood 73:1059 (1989)), 0.17.
